US12458021B2, “Microbiocidal derivatives” (SYNGENTA CROP PROTECTION AG, priority 2019, dated 2025)

Tests used:
[1] = tested on: Botryotinia fuckeliana (Botrytis cinerea); assay: Botryotinia fuckeliana (Botrytis cinerea) / liquid culture (gray mould); format: cell-based; conditions: Vogels broth, 24° C., 3-4 days after application, read-out: control of Botryotinia fuckeliana (inhibition of growth, photometric)
Description: Example B2: Botryotinia fuckeliana (Botrytis cinerea)/Liquid Culture (Gray Mould) Conidia of the fungus from cryogenic storage are directly mixed into nutrient broth (Vogels broth). After placing a (DMSO) solution of test compound into a microtiter plate (96-well format), the nutrient broth containing the fungal spores is added. The test plates are incubated at 24° C. and the inhibition of growth is determined photometrically 3-4 days after application. […] […]-190.

[2] = tested on: Glomerella lagenarium (Colletotrichum lagenarium); assay: Glomerella lagenarium (Colletotrichum lagenarium) / liquid culture (anthracnose); format: cell-based; conditions: Colletotrichum orbiculare, PDB potato dextrose broth, 24° C., 3-4 days after application, read-out: control of Glomerella lagenarium (inhibition of growth, photometric)
Method in brief: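 Fungal growth inhibition measured photometrically 3-4 days post-application at 24° C. Spores were mixed directly into potato dextrose broth and dispensed onto test compound supplied in DMSO.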

[3] = tested on: Mycosphaerella graminicola (Septoria tritici); assay: Mycosphaerella graminicola (Septoria tritici) / liquid culture (Septoria blotch); format: cell-based; conditions: Zymoseptoria tritici, PDB potato dextrose broth, 24° C., 4-5 days after application, read-out: control of Mycosphaerella graminicola (inhibition of growth, photometric)
Method in brief: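 Fungal growth inhibition was read photometrically 4-5 days after application. Compound was dosed from a DMSO solution into liquid cultures of spores in potato dextrose broth, incubated at 24° C.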

[4] = tested on: Magnaporthe grisea (Pyricularia oryzae); assay: whole plant or invertebrate; format: in vivo; conditions: foliar, read-out: control of Magnaporthe grisea (percent disease control compared to untreated)
[5] = tested on: Monographella nivalis (Microdochium nivale); assay: Monographella nivalis (Microdochium nivale) / liquid culture (foot rot cereals); format: cell-based; conditions: PDB potato dextrose broth, 24° C., 4-5 days after application, read-out: control of Monographella nivalis (inhibition of growth, photometric)
Method in brief: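 Growth inhibition measured by photometry 4-5 days post-application at 24° C. Compound was dispensed as DMSO solution, then PDB broth containing conidia from cryogenic storage was added.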

[6] = tested on: Blumeria graminis f. sp. tritici (Erysiphe graminis f. sp. tritici); assay: Blumeria graminis f. sp. tritici / wheat / leaf disc preventative (powdery mildew on wheat); format: in vivo; conditions: foliar, wheat leaf segments cv. Kanzler, inoculated 1 day after application, assessed 6-8 days after application, read-out: control of Blumeria graminis f. sp. tritici (percent disease control compared to untreated)
Source text: Example B4: Blumeria graminis f. sp. tritici (Erysiphe graminis f. sp. tritici)/Wheat/Leaf Disc Preventative (Powdery Mildew on Wheat) Wheat leaf segments cv. Kanzler are placed on agar in a multiwell plate (24-well format) and sprayed with the formulated test compound diluted in water. The leaf disks are inoculated by shaking powdery mildew infected plants above the test plates 1 day after application. […] […]-192.

[7] = tested on: Alternaria solani; assay: Alternaria solani / tomato / leaf disc (early blight); format: in vivo; conditions: foliar, tomato leaf disks cv. Baby, inoculated 2 days after application, assessed 5-7 days after application, read-out: control of Alternaria solani (percent disease control compared to untreated)
Description: Example B1: Alternaria solani/Tomato/Leaf Disc (Early Blight) Tomato leaf disks cv. Baby are placed on agar in multiwell plates (24-well format) and sprayed with the formulated test compound diluted in water. The leaf disks are inoculated with a spore suspension of the fungus 2 days after application. The inoculated leaf disks are incubated at 23° C./21° C. […] […]-185.

[8] = tested on: Puccinia recondita f. sp. tritici; assay: Puccinia recondita f. sp. tritici / wheat / leaf disc preventative (brown rust); format: in vivo; conditions: foliar, wheat leaf segments cv. Kanzler, inoculated 1 day after application, assessed 7-9 days after application, read-out: control of Puccinia recondita f. sp. tritici, preventative (percent disease control compared to untreated)
Method in brief: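 Wheat leaf segments (cv. Kanzler) on agar were sprayed with formulated compound, then inoculated with spores 1 day later. Segments were incubated at 19 °C, 75% rh with 12 h light/dark. Percent disease control versus untreated was scored 7–9 days after application.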

[9] = tested on: Phaeosphaeria nodorum (Septoria nodorum); assay: Phaeosphaeria nodorum (Septoria nodorum) / wheat / leaf disc preventative (glume blotch); format: in vivo; conditions: Parastagonospora nodorum, foliar, wheat leaf segments cv. Kanzler, inoculated 2 days after application, assessed 5-7 days after application, read-out: control of Phaeosphaeria nodorum (percent disease control compared to untreated)
Description: Example B6: Phaeosphaeria nodorum (Septoria nodorum)/Wheat/Leaf Disc Preventative (Glume Blotch) Wheat leaf segments cv. Kanzler are placed on agar in a multiwell plate (24-well format) and sprayed with the formulated test compound diluted in water. The leaf disks are inoculated with a spore suspension of the fungus 2 days after application. The inoculated test leaf disks are incubated at 20° C. and 75% rh under a light regime of 12 h light/12 h darkness in a climate cabinet and the activity of a compound is assessed as percent disease control compared to untreated when an appropriate level of disease damage appears in untreated check leaf disks (5-7 days after application). […] […]-190.

[10] = tested on: Pyrenophora teres; assay: Pyrenophora teres / barley / leaf disc preventative (net blotch); format: in vivo; conditions: foliar, barley leaf segments cv. Hasso, inoculated 2 days after application, assessed 5-7 days after application, read-out: control of Pyrenophora teres (disease control compared to untreated)
Description: Example B13: Pyrenophora teres/Barley/Leaf Disc Preventative (Net Blotch) Barley leaf segments cv. Hasso are placed on agar in a multiwell plate (24-well format) and sprayed with the formulated test compound diluted in water. The leaf segments are inoculated with a spore suspension of the fungus 2 days after application. The inoculated leaf segments are incubated at 20° C. and 65% rh under a light regime of 12 h light/12 h darkness in a climate cabinet and the activity of a compound is assessed as disease control compared to untreated when an appropriate level of disease damage appears in untreated check leaf segments (5-7 days after application). […] […]-185.

[11] = tested on: Mycosphaerella arachidis (Cercospora arachidicola); assay: Mycosphaerella arachidis (Cercospora arachidicola) / liquid culture (early leaf spot); format: cell-based; conditions: PDB potato dextrose broth, 24° C., 4-5 days after application, read-out: control of Mycosphaerella arachidis (inhibition of growth, photometric)
Description: Example B8: Mycosphaerella arachidis (Cercospora arachidicola)/Liquid Culture (Early Leaf Spot) Conidia of the fungus from cryogenic storage are directly mixed into nutrient broth (PDB potato dextrose broth). After placing a (DMSO) solution of test compound into a microtiter plate (96-well format), the nutrient broth containing the fungal spores is added. The test plates are incubated at 24° C. and the inhibition of growth is determined photometrically 4-5 days after application. […] […]-180.

COc1ccc(Nc2ccc(C)c(Cl)c2)nc1C(=O)NC(C)(C)C [Compound P-151, N-tert-butyl-6-(3-chloro-4-methyl-anilino)-3-methoxy-pyridine-2-carboxamide]
≥ 80%: inhibition at 20 ppm [1] | inhibition at 20 ppm [2] | inhibition at 20 ppm [3] | pest or weed control at 200 ppm [4] | inhibition at 20 ppm [5]

COc1ccc(Nc2ccc(C)c(F)c2)nc1C(=O)NCC(C)(C)C [Compound P-142, N-(2,2-dimethylpropyl)-6-(3-fluoro-4-methyl-anilino)-3-methoxy-pyridine-2-carboxamide]
≥ 80%: inhibition at 20 ppm [1] | inhibition at 20 ppm [2]

COc1ccc(Nc2cc(F)cc(F)c2)nc1C(=O)NCC(C)(C)C [Compound P-22, 6-(3,5-difluoroanilino)-N-(2,2-dimethylpropyl)-3-methoxy-pyridine-2-carboxamide]
≥ 80%: pest or weed control at 200 ppm [6] | pest or weed control at 200 ppm [7] | inhibition at 20 ppm [2] | inhibition at 20 ppm [3] | pest or weed control at 200 ppm [4] | inhibition at 20 ppm [5] | pest or weed control at 200 ppm [8] | pest or weed control at 200 ppm [9] | pest or weed control at 200 ppm [10] | inhibition at 20 ppm [11]

COc1ccc(Nc2cc(F)cc(F)c2)nc1C(=O)NCC1(C(F)(F)F)CC1 [Compound P-62, 6-(3,5-difluoroanilino)-3-methoxy-N-[[1-(trifluoromethyl)cyclopropyl]methyl]pyridine-2-carboxamide]
≥ 80%: pest or weed control at 200 ppm [6] | pest or weed control at 200 ppm [7] | inhibition at 20 ppm [2] | inhibition at 20 ppm [3] | pest or weed control at 200 ppm [4] | inhibition at 20 ppm [5] | pest or weed control at 200 ppm [8] | pest or weed control at 200 ppm [9] | pest or weed control at 200 ppm [10] | inhibition at 20 ppm [11]

COc1ccc(Nc2cc(F)cc(F)c2)nc1C(=O)NC(C)C(C)(C)C (centres unmarked) [Compound P-170, 6-(3,5-difluoroanilino)-3-methoxy-N-(1,2,2-trimethylpropyl)pyridine-2-carboxamide]
≥ 80%: pest or weed control at 200 ppm [6] | pest or weed control at 200 ppm [7] | inhibition at 20 ppm [1] | inhibition at 20 ppm [2] | inhibition at 20 ppm [3] | inhibition at 20 ppm [5]

CCOc1ccc(Nc2cc(F)cc(F)c2)nc1C(=O)NC(C)(C)C [Compound P-94, N-tert-butyl-6-(3,5-difluoroanilino)-3-ethoxy-pyridine-2-carboxamide]
≥ 80%: pest or weed control at 200 ppm [6] | pest or weed control at 200 ppm [7] | inhibition at 20 ppm [2] | inhibition at 20 ppm [3] | pest or weed control at 200 ppm [4] | inhibition at 20 ppm [5] | pest or weed control at 200 ppm [9] | pest or weed control at 200 ppm [10] | inhibition at 20 ppm [11]

COc1ccc(Nc2ccc(C)c(Cl)c2)nc1C(=O)NCC(C)(C)C [Compound P-132, 6-(3-chloro-4-methyl-anilino)-N-(2,2-dimethylpropyl)-3-methoxy-pyridine-2-carboxamide]
≥ 80%: inhibition at 20 ppm [1] | inhibition at 20 ppm [2] | inhibition at 20 ppm [3] | inhibition at 20 ppm [5]

Cc1ccc(Nc2cc(F)cc(F)c2)nc1C(=O)NC1CCC1(C)C (centres unmarked) [Compound P-175, 6-(3,5-difluoroanilino)-N-(2,2-dimethylcyclobutyl)-3-methyl-pyridine-2-carboxamide]
≥ 80%: inhibition at 20 ppm [1] | inhibition at 20 ppm [2] | inhibition at 20 ppm [3] | inhibition at 20 ppm [5]

COc1ccc(Nc2cc(F)cc(F)c2)nc1C(=O)NC1CCC1Oc1ccc(F)cc1 (centres unmarked) [Compound P-45, 6-(3,5-difluoroanilino)-N-[2-(4-fluorophenoxy)cyclobutyl]-3-methoxy-pyridine-2-carboxamide]
≥ 80%: pest or weed control at 200 ppm [6] | pest or weed control at 200 ppm [7] | inhibition at 20 ppm [2] | inhibition at 20 ppm [3] | pest or weed control at 200 ppm [4] | inhibition at 20 ppm [5] | pest or weed control at 200 ppm [8] | pest or weed control at 200 ppm [9] | pest or weed control at 200 ppm [10] | inhibition at 20 ppm [11]

CC1(NC(=O)c2cccc(Nc3cc(F)nc(F)c3)n2)CCCC1 [Compound P-120, 6-[(2,6-difluoro-4-pyridyl)amino]-N-(1-methylcyclopentyl)pyridine-2-carboxamide]
≥ 80%: inhibition at 20 ppm [1] | inhibition at 20 ppm [2] | inhibition at 20 ppm [3] | pest or weed control at 200 ppm [4] | inhibition at 20 ppm [5] | pest or weed control at 200 ppm [8]

COc1ccc(NCC(O)CO)nc1C(=O)NCC(C)(C)C (centres unmarked) [Compound P-42, 6-(2,3-dihydroxypropylamino)-N-(2,2-dimethylpropyl)-3-methoxy-pyridine-2-carboxamide]
≥ 80%: inhibition at 20 ppm [1] | inhibition at 20 ppm [2]

CC1(NC(=O)c2cccc(Nc3cc(F)cc(F)c3)n2)CCCC1 [Compound P-119, 6-(3,5-difluoroanilino)-N-(1-methylcyclopentyl)pyridine-2-carboxamide]
≥ 80%: inhibition at 20 ppm [1] | inhibition at 20 ppm [2] | inhibition at 20 ppm [3] | pest or weed control at 200 ppm [4] | inhibition at 20 ppm [5] | pest or weed control at 200 ppm [8]
